# According to patent US20020026053A1, “Novel 3-(substituted) -2- indolinones compounds and use thereof as inhibitors of protein kinase activity” (priority 1997, published 2002):
# Molecular target: T1, Met receptor (EGFR/Met chimeric cells, EMR) (Homo sapiens, UniProt P08581)
# T1 construct: expressed in transfected cells; the other entry of the earlier key: EGFR (P00533, Epidermal growth factor receptor)
# Assay: Met Autophosphorylation Assay
# Type: biochemical
# Conditions: protocol P.130
# In short: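 Transiently transfected EGFR/Met chimeric (EMR) cells were lysed in HNTG with 1 mM PMSF. Met was captured on plates coated with goat anti-rabbit IgG, then rabbit anti-Met (C-28), using 90 μg lysate/100 μl for 60 min at room temperature. Phosphotyrosine was read by ELISA.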
# T1 sequence (P08581 with tags, fused parts or gaps): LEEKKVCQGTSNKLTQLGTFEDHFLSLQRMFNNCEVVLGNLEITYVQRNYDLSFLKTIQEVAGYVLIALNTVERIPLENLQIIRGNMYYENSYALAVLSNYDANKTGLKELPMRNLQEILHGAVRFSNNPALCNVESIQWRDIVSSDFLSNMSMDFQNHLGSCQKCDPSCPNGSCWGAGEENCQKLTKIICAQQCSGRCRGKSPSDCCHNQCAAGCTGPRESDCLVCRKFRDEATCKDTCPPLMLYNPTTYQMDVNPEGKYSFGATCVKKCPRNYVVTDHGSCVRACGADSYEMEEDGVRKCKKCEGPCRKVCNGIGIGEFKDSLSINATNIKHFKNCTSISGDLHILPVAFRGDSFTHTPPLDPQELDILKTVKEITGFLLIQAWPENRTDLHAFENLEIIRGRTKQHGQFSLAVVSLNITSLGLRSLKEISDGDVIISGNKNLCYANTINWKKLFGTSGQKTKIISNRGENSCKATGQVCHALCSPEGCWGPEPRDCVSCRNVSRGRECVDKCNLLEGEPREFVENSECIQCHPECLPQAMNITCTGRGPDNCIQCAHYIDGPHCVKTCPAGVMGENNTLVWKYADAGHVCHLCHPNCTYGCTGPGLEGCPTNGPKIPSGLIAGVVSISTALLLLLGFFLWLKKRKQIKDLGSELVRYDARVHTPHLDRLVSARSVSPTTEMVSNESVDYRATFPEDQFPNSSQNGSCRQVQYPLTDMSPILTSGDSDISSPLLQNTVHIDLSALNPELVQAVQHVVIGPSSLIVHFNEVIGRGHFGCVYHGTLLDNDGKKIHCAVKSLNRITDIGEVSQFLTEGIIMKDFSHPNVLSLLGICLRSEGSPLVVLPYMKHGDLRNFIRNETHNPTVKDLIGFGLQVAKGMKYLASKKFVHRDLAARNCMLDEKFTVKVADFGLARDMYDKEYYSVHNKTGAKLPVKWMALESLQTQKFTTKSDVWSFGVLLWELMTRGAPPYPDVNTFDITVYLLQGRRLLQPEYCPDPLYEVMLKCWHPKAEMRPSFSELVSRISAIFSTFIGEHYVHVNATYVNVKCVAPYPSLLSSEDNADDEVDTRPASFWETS
row,SMILES,Met Kinase % Inhibition (P.130) [%]
1,O=C1Nc2ccc(CCCl)cc2C1=Cc1cccc(F)c1 [10736/G07],−0.2
2,O=C1Nc2ccc(CCCl)cc2C1=Cc1ccccc1F [10736/G08],6.6
3,CCc1ccc(C=C2C(=O)Nc3ccc(CCCl)cc32)cc1 [10736/G09],16.2
4,COc1cccc(C=C2C(=O)Nc3ccc(CCCl)cc32)c1 [10736/G10],5.7
5,O=C1Nc2ccc(CCCl)cc2C1=Cc1ccccc1Cl [10736/G11],10.3
6,Cc1c(Br)cc(Br)c2c1C(=Cc1ccc(Cl)cc1)C(=O)N2 [10736/H02],62.8
7,Cc1c(Br)cc(Br)c2c1C(=Cc1ccccc1C(F)(F)F)C(=O)N2 [10736/H03],27.7
8,Cc1cccc(C=C2C(=O)Nc3c(Br)cc(Br)c(C)c32)c1 [10736/H04],27.2
9,Cc1ccc(C=C2C(=O)Nc3c(Br)cc(Br)c(C)c32)cc1 [10736/H05],21.1
10,Cc1c(Br)cc(Br)c2c1C(=Cc1cccc(Cl)c1)C(=O)N2 [10736/H06],27.4
